The compounds below were run against human APJ receptor (Homo sapiens (Human), UniProt P35414) (assay: [35S]GTPγS binding assay on membranes from CHO cells stably expressing human APJ receptor). Settings: read-out: Activity hAPJ SPA EC50 IP.
Format: biochemical
How it was run: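 Agonist-driven [35S]GTPγS (0.2 nM) binding was measured over 90 min at room temperature on human APJ-expressing CHO membranes with bead capture, in buffer containing 3 μM GDP, 200 mM NaCl and 5 mM MgCl2 (pH 7.5). Excess unlabelled GTPγS (100 μM) gave nonspecific signal; EC50 from non-linear fits.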

human APJ receptor, sequence (P35414 whole entry): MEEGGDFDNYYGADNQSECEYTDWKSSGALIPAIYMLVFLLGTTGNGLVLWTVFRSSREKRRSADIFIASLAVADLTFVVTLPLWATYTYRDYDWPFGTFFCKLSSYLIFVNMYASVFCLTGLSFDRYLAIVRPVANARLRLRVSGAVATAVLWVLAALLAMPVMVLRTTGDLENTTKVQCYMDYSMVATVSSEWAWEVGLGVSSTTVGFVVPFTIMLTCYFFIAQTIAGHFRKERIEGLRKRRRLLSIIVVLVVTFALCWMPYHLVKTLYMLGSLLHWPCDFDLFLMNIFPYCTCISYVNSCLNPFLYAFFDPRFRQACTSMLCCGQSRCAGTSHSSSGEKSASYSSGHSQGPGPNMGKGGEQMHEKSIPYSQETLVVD

Row | Compound | EC50
1 | (1S,2S)-N-(4-(4,6-dimethoxypyrimidin-5-yl)-5-((R)-5,5-dimethyltetrahydrofuran-3-yl)-4H-1,2,4-triazol-3-yl)-1-isopropoxy-1-(5-methylpyrimidin-2-yl)propane-2-sulfonamide or (1S,2S)-N-(4-(4,6-dimethoxypyrimidin-5-yl)-5-((S)-5,5-dimethyltetrahydrofuran-3-yl)-4H-1,2,4-triazol-3-yl)-1-isopropoxy-1-(5-methylpyrimidin-2-yl)propane-2-sulfonamide [Example 313.0] | 530 nM
2 | COc1ncnc(OC)c1-n1c(NS(=O)(=O)[C@@H](C)[C@H](C)c2ncc(C)cn2)nnc1[C@H]1CCCO1 (single isomer, unassigned) [Example 70.0, (2S,3R)-N-(4-(4,6-dimethoxypyrimidin-5-yl)-5-((S)-tetrahydrofuran-2-yl)-4H-1,2,4-triazol-3-yl)-3-(5-methylpyrimidin-2-yl)butane-2-sulfonamide or (2S,3R)-N-(4-(4,6-dimethoxypyrimidin-5-yl)-5-((R)-tetrahydrofuran-2-yl)-4H-1,2,4-triazol-3-yl)-3-(5-methylpyrimidin-2-yl)butane-2-sulfonamide] | 15 nM
3 | COc1cccc(OC)c1-n1c(NS(=O)(=O)[C@@H](C)[C@@H](OC(C)C)c2ncc(C)cn2)nnc1[C@H]1CCCOC1 (single isomer, unassigned) [Example 137.0, (1S,2S)-N-(4-(2,6-dimethoxyphenyl)-5-((R)-tetrahydro-2H-pyran-3-yl)-4H-1,2,4-triazol-3-yl)-1-isopropoxy-1-(5-methylpyrimidin-2-yl)propane-2-sulfonamide or (1S,2S)-N-(4-(2,6-dimethoxyphenyl)-5-((S)-tetrahydro-2H-pyran-3-yl)-4H-1,2,4-triazol-3-yl)-1-isopropoxy-1-(5-methylpyrimidin-2-yl)propane-2-sulfonamide] | 4.8 nM
4 | COc1cccc(OC)c1-n1c(NS(=O)(=O)[C@@H](C)[C@H](C)c2ncc(Cl)cn2)nnc1[C@@H]1COCCO1 (single isomer, unassigned) [Example 39.0, (2S,3R)-3-(5-chloro-2-pyrimidinyl)-N-(4-(2,6-dimethoxyphenyl)-5-((2R)-1,4-dioxan-2-yl)-4H-1,2,4-triazol-3-yl)-2-butanesulfonamide or (2S,3R)-3-(5-chloro-2-pyrimidinyl)-N-(4-(2,6-dimethoxyphenyl)-5-((2S)-1,4-dioxan-2-yl)-4H-1,2,4-triazol-3-yl)-2-butanesulfonamide] | 5.3 nM
5 | COc1cccc(OC)c1-n1c(NS(=O)(=O)[C@@H](C)[C@H](C)c2ccc(Cl)cn2)nnc1C1CCOC1 (single isomer, unassigned) [Example 409.0] | 11 nM
6 | (1S,2S)-1-isopropoxy-1-(5-methylpyrazin-2-yl)-N-(4-(tetrahydro-2H-pyran-4-yl)-5-((R)-tetrahydrofuran-2-yl)-4H-1,2,4-triazol-3-yl)propane-2-sulfonamide or (1S,2S)-1-isopropoxy-1-(5-methylpyrazin-2-yl)-N-(4-(tetrahydro-2H-pyran-4-yl)-5-((S)-tetrahydrofuran-2-yl)-4H-1,2,4-triazol-3-yl)propane-2-sulfonamide [Example 260.0] | > 4200 nM
7 | CO[C@H](c1cnc(C)cn1)[C@H](C)S(=O)(=O)Nc1nnc([C@H]2CCCOC2)n1C1(C)CC1 (single isomer, unassigned) [Example 131.0, (1R,2S)-1-methoxy-N-(4-(1-methylcyclopropyl)-5-((R)-tetrahydro-2H-pyran-3-yl)-4H-1,2,4-triazol-3-yl)-1-(5-methylpyrazin-2-yl)propane-2-sulfonamide or (1R,2S)-1-methoxy-N-(4-(1-methylcyclopropyl)-5-((S)-tetrahydro-2H-pyran-3-yl)-4H-1,2,4-triazol-3-yl)-1-(5-methylpyrazin-2-yl)propane-2-sulfonamide] | 550 nM
8 | CO[C@H](c1ncc(Cl)cn1)[C@H](C)S(=O)(=O)Nc1nnc([C@H]2CCC(C)(C)O2)n1C(C)C (single isomer, unassigned) [Example 299.0, (1R,2S)-1-(5-chloropyrimidin-2-yl)-N-(5-((R)-5,5-dimethyltetrahydrofuran-2-yl)-4-isopropyl-4H-1,2,4-triazol-3-yl)-1-methoxypropane-2-sulfonamide or (1R,2S)-1-(5-chloropyrimidin-2-yl)-N-(5-((S)-5,5-dimethyltetrahydrofuran-2-yl)-4-isopropyl-4H-1,2,4-triazol-3-yl)-1-methoxypropane-2-sulfonamide] | 940 nM
9 | COCC(COC)n1c(NS(=O)(=O)[C@@H](C)[C@@H](OC(C)C)c2ncc(Cl)cn2)nnc1[C@@H]1COCCO1 (single isomer, unassigned) [Example 357.0, (1S,2S)-1-(5-chloro-2-pyrimidinyl)-N-(4-(1,3-dimethoxy-2-propanyl)-5-((2R)-1,4-dioxan-2-yl)-4H-1,2,4-triazol-3-yl)-1-(2-propanyloxy)-2-propanesulfonamide or (1S,2S)-1-(5-chloro-2-pyrimidinyl)-N-(4-(1,3-dimethoxy-2-propanyl)-5-((2S)-1,4-dioxan-2-yl)-4H-1,2,4-triazol-3-yl)-1-(2-propanyloxy)-2-propanesulfonamide] | 280 nM
10 | COc1ncnc(OC)c1-n1c(NS(=O)(=O)[C@@H](C)[C@H](OC)c2ncc(C)cn2)nnc1[C@@H]1Cc2ccccc2O1 (single isomer, unassigned) [Example 232.0, (1R,2S)-N-(5-((S)-2,3-dihydrobenzofuran-2-yl)-4-(4,6-dimethoxypyrimidin-5-yl)-4H-1,2,4-triazol-3-yl)-1-methoxy-1-(5-methylpyrimidin-2-yl)propane-2-sulfonamide or (1R,2S)-N-(5-((R)-2,3-dihydrobenzofuran-2-yl)-4-(4,6-dimethoxypyrimidin-5-yl)-4H-1,2,4-triazol-3-yl)-1-methoxy-1-(5-methylpyrimidin-2-yl)propane-2-sulfonamide] | 220 nM
11 | COc1cccc(OC)c1-n1c(NS(=O)(=O)[C@@H](C)[C@H](OC)c2ncc(Cl)cn2)nnc1[C@H]1CCCCO1 (single isomer, unassigned) [Example 84.0, (1R,2S)-1-(5-chloropyrimidin-2-yl)-N-(4-(2,6-dimethoxyphenyl)-5-((S)-tetrahydro-2H-pyran-2-yl)-4H-1,2,4-triazol-3-yl)-1-methoxypropane-2-sulfonamide or (1R,2S)-1-(5-chloropyrimidin-2-yl)-N-(4-(2,6-dimethoxyphenyl)-5-((R)-tetrahydro-2H-pyran-2-yl)-4H-1,2,4-triazol-3-yl)-1-methoxypropane-2-sulfonamide] | 0.8 nM
12 | COc1cccc(OC)c1-n1c(NS(=O)(=O)[C@@H](C)[C@@H](OC(C)C)c2ncc(C)cn2)nnc1[C@H]1CCCO1 (single isomer, unassigned) [Example 98.0, (1S,2S)-N-(4-(2,6-dimethoxyphenyl)-5-((S)-tetrahydrofuran-2-yl)-4H-1,2,4-triazol-3-yl)-1-isopropoxy-1-(5-methylpyrimidin-2-yl)propane-2-sulfonamide or (1S,2S)-N-(4-(2,6-dimethoxyphenyl)-5-((R)-tetrahydrofuran-2-yl)-4H-1,2,4-triazol-3-yl)-1-isopropoxy-1-(5-methylpyrimidin-2-yl)propane-2-sulfonamide] | 0.78 nM
13 | CCC(CC)n1c(NS(=O)(=O)[C@@H](C)[C@H](OC)c2ncc(Cl)cn2)nnc1[C@@H]1COCCO1 (single isomer, unassigned) [Example 335.0, (1R,2S)-1-(5-chloro-2-pyrimidinyl)-N-(5-((2R)-1,4-dioxan-2-yl)-4-(3-pentanyl)-4H-1,2,4-triazol-3-yl)-1-methoxy-2-propanesulfonamide or (1R,2S)-1-(5-chloro-2-pyrimidinyl)-N-(5-((2S)-1,4-dioxan-2-yl)-4-(3-pentanyl)-4H-1,2,4-triazol-3-yl)-1-methoxy-2-propanesulfonamide] | 38 nM
14 | (1S,2S)-N-(4-(1,3-dimethoxy-2-propanyl)-5-((2R,5R)-5-methyltetrahydro-2-furanyl)-4H-1,2,4-triazol-3-yl)-1-(5-methoxy-2-pyrimidinyl)-1-(2-propanyloxy)-2-propanesulfonamide or (1S,2S)-N-(4-(1,3-dimethoxy-2-propanyl)-5-((2S,5S)-5-methyltetrahydro-2-furanyl)-4H-1,2,4-triazol-3-yl)-1-(5-methoxy-2-pyrimidinyl)-1-(2-propanyloxy)-2-propanesulfonamide [Example 362.0] | 390 nM
15 | COc1cnc([C@@H](C)[C@H](C)S(=O)(=O)Nc2nnc([C@@H]3COCCO3)n2-c2c(OC)cccc2OC)nc1 (single isomer, unassigned) [Example 175.0, (2S,3R)-N-(4-(2,6-dimethoxyphenyl)-5-((2R)-1,4-dioxan-2-yl)-4H-1,2,4-triazol-3-yl)-3-(5-methoxy-2-pyrimidinyl)-2-butanesulfonamide or (2S,3R)-N-(4-(2,6-dimethoxyphenyl)-5-((2S)-1,4-dioxan-2-yl)-4H-1,2,4-triazol-3-yl)-3-(5-methoxy-2-pyrimidinyl)-2-butanesulfonamide] | 3.5 nM
16 | CO[C@H](c1ncc(Cl)cn1)[C@H](C)S(=O)(=O)Nc1nnc([C@@H]2COCCO2)n1C(C1CC1)C1CC1 (single isomer, unassigned) [Example 337.0, (1R,2S)-1-(5-chloro-2-pyrimidinyl)-N-(4-(dicyclopropylmethyl)-5-((2R)-1,4-dioxan-2-yl)-4H-1,2,4-triazol-3-yl)-1-methoxy-2-propanesulfonamide or (1R,2S)-1-(5-chloro-2-pyrimidinyl)-N-(4-(dicyclopropylmethyl)-5-((2S)-1,4-dioxan-2-yl)-4H-1,2,4-triazol-3-yl)-1-methoxy-2-propanesulfonamide] | 6.9 nM
